# Literature values as cited in US20070203026A1, “Methods for controlling bermudagrass, bermudagrass hybrids and other weedy monocot and dicot species” (TurfEcosystems, LLC, priority 2006, published 2007).
# Columns and labels:
# bermudagrass = conditions: saturated soil paste extract data
# crested wheatgrass = conditions: saturated soil paste extract data
# [1] = tested on: fairway crested wheatgrass; conditions: saturated soil paste extract data
# tall fescue = conditions: saturated soil paste extract data
# perennial ryegrass = conditions: saturated soil paste extract data
# seashore paspalum = conditions: ocean level chlorides
smiles,measurement,setting,value
Cl [chloride],maximum soil chloride concentration threshold,bermudagrass,about 2450 ppm
same,maximum soil chloride concentration threshold,crested wheatgrass,about 1050 ppm
same,maximum soil chloride concentration threshold,[1],about 2625 ppm
same,maximum soil chloride concentration threshold,tall fescue,about 1400 ppm
same,maximum soil chloride concentration threshold,perennial ryegrass,about 1025 ppm
same,chlorides withstood (salinity tolerance),seashore paspalum,"~19,000 ppm"
